Laboratory results taken from publication PMC6630832, “3-Vinylazetidin-2-Ones: Synthesis, Antiproliferative and Tubulin Destabilizing Activity in MCF-7 and MDA-MB-231 Breast Cancer Cells” (Pharmaceuticals, 2019).
Where two headings read alike, the source gives them in different places.

What was measured:
A498 = experiment: NCI60 screen (SRB), Renal cancer; format: cell-based; details: Homo sapiens
MDA-MB-468 = experiment: NCI60 screen (SRB), Breast cancer; format: cell-based; details: Homo sapiens
RXF 393 = experiment: NCI60 screen (SRB), Renal cancer; format: cell-based; details: Homo sapiens
DU-145 = experiment: NCI60 screen (SRB), Prostate cancer; format: cell-based; details: Homo sapiens
OVCAR-3 = experiment: NCI60 screen (SRB), Ovarian cancer; format: cell-based; details: Homo sapiens
SK-MEL-5 = experiment: NCI60 screen (SRB), Melanoma; format: cell-based; details: Homo sapiens
MALME-3M = experiment: NCI60 screen (SRB), Melanoma; format: cell-based; details: Homo sapiens
SF-268 = experiment: NCI60 screen (SRB), CNS Cancer; format: cell-based; details: Homo sapiens
M14 = experiment: NCI60 screen (SRB), Melanoma; format: cell-based; details: Homo sapiens
SK-MEL-2 = experiment: NCI60 screen (SRB), Melanoma; format: cell-based; details: Homo sapiens
ACHN = experiment: NCI60 screen (SRB), Renal cancer; format: cell-based; details: Homo sapiens
OVCAR-4 = experiment: NCI60 screen (SRB), Ovarian cancer; format: cell-based; details: Homo sapiens
786-0 = experiment: NCI60 screen (SRB), Renal cancer; format: cell-based; details: Homo sapiens
HCT-15 = experiment: NCI60 screen (SRB), Colon Cancer; format: cell-based; details: Homo sapiens
[1] = HPLC stability study in phosphate buffers; format: physicochemical; details: phosphate buffer, read-out: half-life (t½)
Description: (§1) Analytical high-performance liquid chromatography (HPLC) stability studies were performed using a Symmetry® column (C18, 5 µm, 4.6 × 150 mm), a Waters 2487 Dual Wavelength Absorbance detector, a Waters 1525 binary HPLC pump and a Waters 717 plus Autosampler (Waters Corporation, 34 Maple St, Milford, MA, USA). Samples were detected at wavelength of 254 nm. All samples were analysed using acetonitrile (80%) and water (20%) as the mobile phase over 10 min and a flow rate of 1 mL/min. Stock solutions were prepared by dissolving 5 mg of compound 7s, 17b and 17c in 10 mL of mobile phase. Phosphate buffers at the desired pH values (4, 7.4 and 9) were prepared in accordance with the British Pharmacopoeia monograph 2015. 30 µL of stock solution was diluted with 1 mL of appropriate buffer, shaken and injected immediately. Samples were withdrawn and analysed at time intervals of t = 0 min, 5 min, 30 min, 60 min, 90 min, 120 min, 24 h and 48 h. Plasma stability studies: 360 µL stock solution of compounds 7s, 17b and 17c were transferred to buffered plasma (plasma: buffer = 1:9, 4 mL in total) at 37 °C in screw cap container. Immediately a 250 µL aliquot was withdrawn and added to the Eppendorf tube containing 500 µL ZnSO4.7H2O solution (2% w/v ZnSO4 solution in acetonitrile: water, 1:1). The samples were then centrifuged at 10,000 rpm for 3 min and filtered through a 0.2-micron filter and injected according to the HPLC conditions listed above. Further samples were taken in the same manner every 1 h thereafter up to 6 h. A final sample was taken after 24 h. Whole blood stability studies. A 360 µL aliquot of stock solution of compounds 17b and 17c in acetonitrile was added in whole blood (4 mL, treated with 2% sodium citrate) at 37 °C and 300 µL aliquots were withdrawn at approptiate intervals. Samples were transferred to 1.5 mL Eppenddorf tubes containing 1 mL of ZnSO4. 7H2O solution (2% w/v ZnSO4 solution in acetonitrile: water, 1:1), vortexed and then centrifuged for 5 min at 14,000 rpm. The sample filtered through a 0.2-micron filter and injected according to the HPLC conditions listed above.

Plasma stability study = format: in vitro ADME, human; parameters: half-life: dose or concentration left out as unconfirmed; details: 37 °C; for remaining after 6 h: human plasma
Description: as §1

TK-10 = experiment: NCI60 screen (SRB), Renal cancer; format: cell-based; details: Homo sapiens
K-562 = experiment: NCI60 screen (SRB), Leukemia; format: cell-based; details: Homo sapiens, K562
RPMI-8226 = experiment: NCI60 screen (SRB), Leukemia; format: cell-based; details: Homo sapiens
OVCAR-8 = experiment: NCI60 screen (SRB), Ovarian cancer; format: cell-based; details: Homo sapiens
HL-60(TB) = experiment: NCI60 screen (SRB), Leukemia; format: cell-based; details: Homo sapiens; NCI60 Leukemia cell line HL-60(TB)
[2] = NCI60 Renal cancer cell line A498, read-out: GI50
[3] = NCI60 Breast cancer cell line MDA-MB-468, read-out: GI50
[4] = NCI60 Renal cancer cell line RXF 393, read-out: GI50
[5] = human, buffered plasma (plasma:buffer 1:9), plasma, read-out: half-life (t½)
[6] = NCI60 Prostate cancer cell line DU-145, read-out: GI50
[7] = NCI60 Ovarian cancer cell line OVCAR-3, read-out: GI50
[8] = NCI60 Melanoma cell line SK-MEL-5, read-out: GI50
[9] = NCI60 Melanoma cell line MALME-3M, read-out: GI50
[10] = NCI60 CNS Cancer cell line SF-268, read-out: GI50
[11] = NCI60 Melanoma cell line M14, read-out: GI50
[12] = NCI60 Melanoma cell line SK-MEL-2, read-out: GI50
[13] = NCI60 Renal cancer cell line ACHN, read-out: GI50
[14] = NCI60 Ovarian cancer cell line OVCAR-4, read-out: GI50
[15] = NCI60 Renal cancer cell line TK-10, read-out: GI50
[16] = NCI60 Renal cancer cell line 786-0, read-out: GI50
[17] = NCI60 Colon Cancer cell line HCT-15, read-out: GI50
[18] = NCI60 Leukemia cell line K-562, read-out: GI50
[19] = NCI60 Leukemia cell line RPMI-8226, read-out: GI50
[20] = NCI60 Ovarian cancer cell line OVCAR-8, read-out: GI50

Row | SMILES | GI50 (A498; A498) [nM] | GI50 (A498; [2]) [nM] | half-life at 14.6 µg/mL ([1]; pH 4) [h] | half-life at 14.6 µg/mL ([1]; pH 7.4) [h] | half-life at 14.6 µg/mL ([1]; pH 9) [h] | GI50 (MDA-MB-468; [3]) [nM] | GI50 (RXF 393; [4]) [nM] | GI50 (DU-145; [6]) [nM] | GI50 (OVCAR-3; [7]) [nM] | GI50 (SK-MEL-5; [8]) [nM] | GI50 (MALME-3M; [9]) [nM] | GI50 (SF-268; [10]) [nM] | GI50 (M14; [11]) [nM] | GI50 (SK-MEL-2; [12]) [nM] | GI50 (ACHN; [13]) [nM] | GI50 (OVCAR-4; [14]) [nM] | GI50 (TK-10; [15]) [nM] | GI50 (786-0; [16]) [nM] | GI50 (HCT-15; [17]) [nM] | GI50 (HL-60(TB)) [nM] | also measured
1 | C=CC1C(=O)N(c2cc(OC)c(OC)c(OC)c2)C1c1ccc(OC)cc1 (stereo not shown) [Compound 7h, 4-(4-Methoxyphenyl)-1-(3,4,5-trimethoxyphenyl)-3-vinylazetidin-2-one] | 18.3 |  |  |  |  |  |  |  |  |  |  |  |  |  |  |  |  |  |  |  | GI50 (MDA-MB-468; MDA-MB-468): 22.7 nM; GI50 (RXF 393; RXF 393): 28.7 nM; GI50 (DU-145; DU-145): 29.8 nM; GI50 (OVCAR-3; OVCAR-3): 25.1 nM; GI50 (SK-MEL-5; SK-MEL-5): 19.4 nM; GI50 (MALME-3M; Malme-3M): 73 nM; GI50 (SF-268; SF-268): 47.6 nM; GI50 (M14; M14): 25.2 nM; GI50 (SK-MEL-2; SK-MEL-2): 191 nM; GI50 (ACHN; ACHN): 61.5 nM; GI50 (OVCAR-4; OVCAR-4): 77.6 nM; GI50 (786-0; 786-0): 33.9 nM; GI50 (HCT-15; HCT-15): 37.1 nM
2 | C=CC1C(=O)N(c2cc(OC)c(OC)c(OC)c2)C1c1ccc(OC)c(O)c1 (stereo not shown) [Compound 7s, 4-[3-Hydroxy-4-methoxyphenyl]-1-(3,4,5-trimethoxyphenyl)-3-vinylazetidin-2-one] |  | < 10 | > 24 | > 24 | > 24 | < 10 | 13.6 | < 10 | < 10 | < 10 | 28.3 | < 10 | < 10 | 31.4 | < 10 | 13.1 | 10.2 | 27.3 | 18 |  | half-life at 41.3 µg/mL (Plasma stability study; [5]): > 24 h
3 | C=CC1C(=O)N(c2cc(OC)c(OC)c(OC)c2)C1c1ccc(OC)c(N)c1 (stereo not shown) [Compound 7t, 4-(3-Amino-4-methoxyphenyl)-1-(3,4,5-trimethoxyphenyl)-3-vinylazetidin-2-one] | 11 |  |  |  |  |  |  |  |  |  |  |  |  |  |  |  |  |  |  | 13.7 | GI50 (K-562): 37.2 nM; GI50 (MDA-MB-468; MDA-MB-468): < 10 nM; GI50 (RXF 393; RXF 393): 36.6 nM; GI50 (RPMI-8226; RPMI-8226): < 10 nM; GI50 (DU-145; DU-145): 36.5 nM; GI50 (OVCAR-8; OVCAR-8): 14.8 nM; GI50 (OVCAR-3; OVCAR-3): 18.1 nM; GI50 (SK-MEL-5; SK-MEL-5): 14.6 nM; GI50 (MALME-3M; Malme-3M): > 100000 nM; GI50 (SF-268; SF-268): 54.6 nM; GI50 (M14; M14): 27.2 nM; GI50 (SK-MEL-2; SK-MEL-2): 65.6 nM; GI50 (ACHN; ACHN): 37.3 nM; GI50 (OVCAR-4; OVCAR-4): < 10 nM; GI50 (TK-10; TK-10): 26800 nM; GI50 (786-0; 786-0): 34.6 nM; GI50 (HCT-15; HCT-15): 28.7 nM
4 | C=CC1C(=O)N(c2cc(OC)c(OC)c(OC)c2)C1c1ccc(OC)c(OP(=O)(O)O)c1 (stereo not shown) [Compound 17b, 2-Methoxy-5-(1-(3,4,5-trimethoxyphenyl)-4-oxo-3-vinylazetidin-2-yl)phenyl dihydrogen phosphate] |  | 21.8 | > 24 | > 24 | > 24 | 49.6 | 64.8 | 59.6 | 49.7 | 31.2 | 54500 | 88.4 | 748 | 85.8 | 64.5 | 160 | 11400 | 229 | 47.4 | 27.3 | GI50 (K-562; [18]): 41.5 nM; GI50 (RPMI-8226; [19]): 80.2 nM; remaining after 6 h (Plasma stability study): 94%; half-life (Plasma stability study; [5]): > 24 h; GI50 (OVCAR-8; [20]): 44.2 nM
5 | CCC1C(=O)N(c2cc(OC)c(OC)c(OC)c2)C1c1ccc(OC)c(OP(=O)(O)O)c1 (stereo not shown) [Compound 17c, 5-(3-Ethyl-1-(3,4,5-trimethoxyphenyl)-4-oxoazetidin-2-yl)-2-methoxyphenyl dihydrogen phosphate] |  | 12.9 | > 24 | > 24 | > 24 | 27.6 | 36.9 | 41.3 | 36.8 | 19 | 71400 | 43.3 | 31.7 | 54.4 | 38.5 | 168 | 73.6 | 44.5 | 29.6 | 28.8 | GI50 (K-562; [18]): 35 nM; GI50 (RPMI-8226; [19]): 48.2 nM; remaining after 6 h (Plasma stability study): 92%; half-life (Plasma stability study; [5]): > 24 h; GI50 (OVCAR-8; [20]): 32.7 nM
